One assay deals with T1, human MER (528-end) (Homo sapiens, UniProt Q12866).
T1 construct: human MER (528-end); purchased Camnabio, Japan
T1 sequence (Q12866 528-999 limits assumed): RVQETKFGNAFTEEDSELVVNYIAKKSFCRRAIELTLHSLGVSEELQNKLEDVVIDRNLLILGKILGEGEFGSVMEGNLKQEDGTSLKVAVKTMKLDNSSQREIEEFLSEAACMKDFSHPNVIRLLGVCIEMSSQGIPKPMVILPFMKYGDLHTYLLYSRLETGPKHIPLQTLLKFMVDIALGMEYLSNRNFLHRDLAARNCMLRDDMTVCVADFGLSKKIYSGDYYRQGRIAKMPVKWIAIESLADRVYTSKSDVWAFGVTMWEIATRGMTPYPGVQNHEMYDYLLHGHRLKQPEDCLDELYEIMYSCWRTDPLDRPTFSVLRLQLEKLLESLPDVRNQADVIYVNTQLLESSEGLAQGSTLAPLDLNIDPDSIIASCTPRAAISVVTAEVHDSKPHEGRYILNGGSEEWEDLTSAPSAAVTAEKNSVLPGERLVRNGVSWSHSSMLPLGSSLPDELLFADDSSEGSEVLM
As to the kind of experiment: HTRF kinase activity biochemical assay, MER. The note with it: 10 μM ATP, 30 minutes pre-incubation; read-out: HTRF MERTK IC50. The method, then:
(§1) For the SAR (structure-activity relationship) and compound screening, HTRF (Homogeneous Time Resolved Fluorescence) kinase activity assay was employed for all MER, AXL and TYRO3 kinases using Cisbio HTRF® KinEASE™-TK kit (Cisbio, USA). The kit included biotin-labeled TK substrate, streptavidin-XL665, Eu3+-cryptate-labeled TK antibody and HTRF® Detection buffer. There are two main steps in the kinase assay: kinase reaction and detection of phosphorylated substrate. The reaction was carried out in white low volume 384-well plate (Corning, USA) with 25 nL compound in dimethyl sulfoxide in each well. […] After 1 hour incubation at room temperature, the fluorescence intensity was measured with Envision[…] plate reader (PerkinElmer, USA). Upon excitation at 340 nm by UV, the energy from Eu3+ donor of the antibody is transferred to the FRET acceptor XL665, and […] emits light at 665 nm.
In general terms: In TR-FRET formats the signal depends on donor and acceptor labels being close together.

The target in the next assay is T2, human AXL (473-end) (Homo sapiens, UniProt P30530).
T2 construct: human AXL (473-end); purchased SignalChem, Canada
T2 sequence (P30530 473-894 limits assumed): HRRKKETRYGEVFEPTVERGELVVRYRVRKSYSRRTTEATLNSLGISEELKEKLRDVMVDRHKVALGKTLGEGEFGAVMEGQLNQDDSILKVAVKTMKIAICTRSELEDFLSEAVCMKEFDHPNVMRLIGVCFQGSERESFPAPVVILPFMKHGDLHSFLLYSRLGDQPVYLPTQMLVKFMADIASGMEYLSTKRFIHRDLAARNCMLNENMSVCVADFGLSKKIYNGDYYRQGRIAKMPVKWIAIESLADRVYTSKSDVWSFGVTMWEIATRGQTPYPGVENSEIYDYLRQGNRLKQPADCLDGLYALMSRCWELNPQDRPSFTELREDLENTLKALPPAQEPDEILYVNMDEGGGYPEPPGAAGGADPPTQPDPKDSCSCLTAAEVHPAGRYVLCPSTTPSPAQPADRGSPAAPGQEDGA
As to the kind of experiment: HTRF kinase activity biochemical assay, AXL. The note with it: 10 μM ATP, 30 minutes pre-incubation. Here is the method: as §1

The target in the next assay is T3, human TYRO3 (455-end) (Homo sapiens, UniProt Q06418).
T3 construct: TYRO3 (455-end); purchased SignalChem, Canada
T3 sequence (Q06418 455-890 limits assumed): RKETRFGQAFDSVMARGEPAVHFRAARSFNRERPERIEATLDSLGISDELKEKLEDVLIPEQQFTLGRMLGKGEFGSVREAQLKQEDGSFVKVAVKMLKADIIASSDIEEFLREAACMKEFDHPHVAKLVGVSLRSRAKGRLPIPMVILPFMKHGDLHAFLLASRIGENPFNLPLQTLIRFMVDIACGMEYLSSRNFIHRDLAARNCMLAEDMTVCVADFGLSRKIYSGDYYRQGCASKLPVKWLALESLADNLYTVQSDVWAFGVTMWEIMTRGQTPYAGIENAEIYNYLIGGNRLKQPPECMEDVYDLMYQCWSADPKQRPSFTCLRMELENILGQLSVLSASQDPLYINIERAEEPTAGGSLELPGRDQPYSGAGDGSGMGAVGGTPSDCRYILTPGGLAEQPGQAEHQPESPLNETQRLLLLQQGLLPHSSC
Nature of the assay: HTRF kinase activity biochemical assay, TYRO3. The note with it: 10 μM ATP, 30 minutes pre-incubation; read-out: HTRF TYRO IC50. The method, then:
as §1

What is called IC50 is the midpoint of a concentration-inhibition curve. Take `CCCC1(C)CN(C2CCN(CCO)CC2)c2ccc(-c3ccc(CO[C@H]4CCC[C@@H]4NC(=O)c4cc(-c5cnn(C)c5)cnc4N)cc3)cc21` (mixture of isomers) [Example 39, 2-amino-N-{(1S,2S)-2-[(4-{1-[1-(2-hydroxyethyl)piperidin-4-yl]-3-methyl-3-propyl-2,3-dihydro-1H-indol-5-yl}phenyl)methoxy]cyclopentyl}-5-(1-methyl-1H-pyrazol-4-yl)pyridine-3-carboxamide]: the IC50 on human MER (528-end), on human AXL (473-end) and on human TYRO3 (455-end) was below 0.01 µM in each case.
`CCC1(C)CN(C2CCN(CCO)CC2)c2ccc(-c3ccc(CO[C@H]4CCC[C@@H]4NC(=O)c4cc(-c5cnn(C)c5)cnc4N)cc3)cc21` (mixture of isomers) [Example 40, 2-amino-N-{(1S,2S)-2-[(4-{3-ethyl-1-[1-(2-hydroxyethyl)piperidin-4-yl]-3-methyl-2,3-dihydro-1H-indol-5-yl}phenyl)methoxy]cyclopentyl}-5-(1-methyl-1H-pyrazol-4-yl)pyridine-3-carboxamide]: the IC50 at human MER (528-end), against human AXL (473-end) and on human TYRO3 (455-end) was below 0.01 µM in each case.
In the case of `Cn1cc(-c2cnc(N)c(C(=O)N[C@H]3CCC[C@@H]3OCc3ccc(-c4ccc5c(c4)CC(F)(F)C5N4CCN(CC(O)CO)CC4)cc3)c2)cn1` (mixture of isomers) [Example 59, 2-amino-N-{(1S,2S)-2-[(4-{1-[4-(2,3-dihydroxypropyl)piperazin-1-yl]-2,2-difluoro-2,3-dihydro-1H-inden-5-yl}phenyl)methoxy]cyclopentyl}-5-(1-methyl-1H-pyrazol-4-yl)pyridine-3-carboxamide], the IC50 on human MER (528-end) is below 0.01 µM; against human AXL (473-end), below 0.01 µM; at human TYRO3 (455-end), 0.1 to 1 µM.
As for `Cn1cc(-c2cnc(N)c(C(=O)N[C@H]3C[C@H](O)C[C@@H]3OCc3ccc(-c4ccc5c(c4)C(C)(C)CN5C4CCN(CCO)CC4)cc3)c2)cn1` (relative stereo) [Example 38, rel-2-amino-N-{(1S,2S,4S)-4-hydroxy-2-[(4-{1-[1-(2-hydroxyethyl)piperidin-4-yl]-3,3-dimethyl-2,3-dihydro-1H-indol-5-yl}phenyl)methoxy]cyclopentyl}-5-(1-methyl-1H-pyrazol-4-yl)pyridine-3-carboxamide], the IC50 on human MER (528-end) was below 0.01 µM; at human AXL (473-end), below 0.01 µM; on human TYRO3 (455-end) it was 0.01 to 0.1 µM.
As for `Cn1cc(-c2cnc(N)c(C(=O)N[C@H]3CCC[C@@H]3OCc3ccc(-c4ccc5c(c4)C[C@H](F)[C@@H]5N4CCN(CCO)CC4)cc3)c2)cn1` (relative stereo) [Example 85, 2-amino-N-{(1S,2S)-2-[(4-{(1R*,2S*)-2-fluoro-1-[4-(2-hydroxyethyl)piperazin-1-yl]-2,3-dihydro-1H-inden-5-yl}phenyl)methoxy]cyclopentyl}-5-(1-methyl-1H-pyrazol-4-yl)pyridine-3-carboxamide], the figures for the IC50 on human MER (528-end), against human AXL (473-end) and at human TYRO3 (455-end) were below 0.01 µM, below 0.01 µM and 0.1 to 1 µM, respectively.
As to `Nc1ncc(-c2ccc(F)nc2)cc1C(=O)N[C@H]1CCC[C@@H]1OCc1ccc(-c2ccc3c(c2)C[C@H](F)[C@@H]3N2CCN(CCO)CC2)cc1` (relative stereo) [Example 89, 6-amino-6′-fluoro-N-{(1S,2S)-2-[(4-{(1R*,2S*)-2-fluoro-1-[4-(2-hydroxyethyl)piperazin-1-yl]-2,3-dihydro-1H-inden-5-yl}phenyl)methoxy]cyclopentyl}[3,3′-bipyridine]-5-carboxamide], the IC50 at human MER (528-end) was below 0.01 µM; at human AXL (473-end) it was below 0.01 µM; at human TYRO3 (455-end), above 1 µM.
Turning to `Nc1ncc(-c2ccc(F)nc2)cc1C(=O)N[C@H]1CCC[C@@H]1OCc1ccc(-c2ccc3c(c2)CCC3N2CCN(CC(O)CO)CC2)cc1` (stereo partly drawn) [Example 80, 6-amino-N-{(1S,2S)-2-[(4-{1-[4-(2,3-dihydroxypropyl)piperazin-1-yl]-2,3-dihydro-1H-inden-5-yl}phenyl)methoxy]cyclopentyl}-6′-fluoro[3,3′-bipyridine]-5-carboxamide], the IC50 is below 0.01 µM on human AXL (473-end) and 0.1 to 1 µM on human TYRO3 (455-end).
Regarding `Nc1ncc(-c2cccnc2F)cc1C(=O)N[C@H]1CCC[C@@H]1OCc1ccc(-c2ccc3c(c2)CCC3N2CCN(CCO)CC2)cc1` (stereo partly drawn) [Example 82, 6-amino-2′-fluoro-N-{(1S,2S)-2-[(4-{1-[4-(2-hydroxyethyl)piperazin-1-yl]-2,3-dihydro-1H-inden-5-yl}phenyl)methoxy]cyclopentyl}[3,3′-bipyridine]-5-carboxamide], the IC50 against human AXL (473-end) was below 0.01 µM; on human TYRO3 (455-end), 0.1 to 1 µM.
The matching figures for `Nc1ncc(-c2ccc(F)nc2)cc1C(=O)N[C@H]1CCC[C@@H]1OCc1ccc(-c2ccc3c(c2)CC[C@@H]3N2CCN(CC(O)CO)CC2)cc1` (stereo partly drawn) [Example 100, 6-amino-N-{(1S,2S)-2-[(4-{(1S)-1-[4-(2,3-dihydroxypropyl)piperazin-1-yl]-2,3-dihydro-1H-inden-5-yl}phenyl)methoxy]cyclopentyl}-6′-fluoro[3,3′-bipyridine]-5-carboxamide]: below 0.01 µM and 0.1 to 1 µM.
The corresponding values for `Nc1ncc(-c2cccnc2F)cc1C(=O)N[C@H]1CCC[C@@H]1OCc1ccc(-c2ccc3c(c2)CC[C@@H]3N2CCN(CC(O)CO)CC2)cc1` (stereo partly drawn) [Example 102, 6-amino-N-{(1S,2S)-2-[(4-{(1S)-1-[4-(2,3-dihydroxypropyl)piperazin-1-yl]-2,3-dihydro-1H-inden-5-yl}phenyl)methoxy]cyclopentyl}-2′-fluoro[3,3′-bipyridine]-5-carboxamide] are below 0.01 µM and 0.1 to 1 µM.
The matching figures for `Nc1ncc(-c2cccnc2F)cc1C(=O)N[C@H]1CCC[C@@H]1OCc1ccc(-c2ccc3c(c2)CC[C@@H]3N2CCN(C[C@H](O)CO)CC2)cc1` [Example 166, 6-amino-N-[(1S,2S)-2-({4-[(1S)-1-{4-[(2S)-2,3-dihydroxypropyl]piperazin-1-yl}-2,3-dihydro-1H-inden-5-yl]phenyl}methoxy)cyclopentyl]-2′-fluoro[3,3′-bipyridine]-5-carboxamide]: below 0.01 µM and 0.1 to 1 µM.
Turning to `Nc1ncc(-c2cccnc2F)cc1C(=O)N[C@H]1CCC[C@@H]1OCc1ccc(-c2ccc3c(c2)CC[C@@H]3N2CCN(C[C@@H](O)CO)CC2)cc1` [Example 167, 6-amino-N-[(1S,2S)-2-({4-[(1S)-1-{4-[(2R)-2,3-dihydroxypropyl]piperazin-1-yl}-2,3-dihydro-1H-inden-5-yl]phenyl}methoxy)cyclopentyl]-2′-fluoro[3,3′-bipyridine]-5-carboxamide], the IC50 was below 0.01 µM at human AXL (473-end) and 0.1 to 1 µM at human TYRO3 (455-end).
The corresponding values for `Nc1ncc(-c2cccnc2F)cc1C(=O)N[C@H]1CCC[C@@H]1OCc1ccc(-c2ccc3c(c2)CCC[C@@H]3N2CCN(C[C@H](O)CO)CC2)cc1` [Example 173, 6-amino-N-[(1S,2S)-2-({4-[(5S)-5-{4-[(2S)-2,3-dihydroxypropyl]piperazin-1-yl}-5,6,7,8-tetrahydronaphthalen-2-yl]phenyl}methoxy)cyclopentyl]-2′-fluoro[3,3′-bipyridine]-5-carboxamide] are below 0.01 µM and 0.01 to 0.1 µM.

These data come from US20260146035A1, “FUSED BICYCLIC COMPOUNDS AND THEIR USE AS MER AND AXL INHIBITORS” (DONG-A ST CO., LTD., priority 2022, published 2026).
